Legend:
Test in all cases: relative viability (nuclei count vs DMSO), 5 days (fraction); higher = more cells survive
[1] = compound: C1CC1C(=O)NC2=NNC3=C2C=CC(=C3)C4=CC(=CC=C4)C(=O)NC5CC5 [XMD13-2] + CC(=O)c1c(C)c2cnc(Nc3ccc(N4CCNCC4)cn3)nc2n(C2CCCC2)c1=O [Palbociclib] (partner 0.5 µM)
Outline: (§1)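 Medians of duplicate plates are given as relative viability. That measure is the nuclei count in treated wells divided by the count in vehicle wells. Counts were taken on 4× images of lung cancer cell lines in 1536-well plates, 5 days after pin-tool dosing the day after seeding with one drug alone or a fixed anchor-drug dose plus five library-drug doses (not always all listed) in √10 steps.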

[2] = compound: C1CC1C(=O)NC2=NNC3=C2C=CC(=C3)C4=CC(=CC=C4)C(=O)NC5CC5 [XMD13-2] + Cc1cc(Nc2cc(N3CCN(C)CC3)nc(Sc3ccc(NC(=O)C4CC4)cc3)n2)n[nH]1 [Tozasertib] (partner 0.1 µM)
Outline: as §1

[3] = compound: Cc1ccc(C(=O)Nc2cccc(C(F)(F)F)c2)cc1Nc1cncc(C(N)=O)c1 [ALW-II-49-7] + COc1cccc2cc(-c3nc([C@H]4CC[C@H](C(=O)O)CC4)n4ncnc(N)c34)[nH]c12 [OSI-027] (partner 0.5 µM)
Outline: as §1

[4] = compound: Cc1nc(Nc2ncc(C(=O)Nc3c(C)cccc3Cl)s2)cc(N2CCN(CCO)CC2)n1 [Dasatinib] + N=C(N)NC(=N)NCCc1ccccc1 [Phenformin] (partner 250 µM)
Outline: as §1

Work on PC-3 [JPC-3] yielded a relative viability ([1]; first compound 0.05 µM) of 0.558, a relative viability ([1]; first compound 0.1581 µM) of 0.508 and a relative viability ([1]; first compound 0.5 µM) of 0.571. It also gave a relative viability ([1]; first compound 5 µM) of 0.532, a relative viability ([2]; first compound 0.05 µM) of 0.887 and a relative viability ([2]; first compound 0.1581 µM) of 0.911. For the same cell line, the relative viability ([2]; first compound 0.5 µM) was 0.902, the relative viability ([2]; first compound 1.581 µM) was 0.908 and the relative viability ([2]; first compound 5 µM) was 0.874. For the same cell line, the relative viability ([3]; first compound 0.08 µM) was 0.655, the relative viability ([3]; first compound 0.253 µM) was 0.733 and the relative viability ([3]; first compound 0.8 µM) was 0.805. For the same cell line, the relative viability ([3]; first compound 2.53 µM) was 0.688, the relative viability ([3]; first compound 8 µM) was 0.63 and the relative viability ([4]; first compound 0.005 µM) was 0.482. It also gave a relative viability ([4]; first compound 0.01581 µM) of 0.458, a relative viability ([4]; first compound 0.05 µM) of 0.453 and a relative viability ([4]; first compound 0.1581 µM) of 0.473. The relative viability ([4]; first compound 0.5 µM) was 0.305.

Cell Line HCC-44 has a relative viability ([1]; first compound 0.05 µM) of 0.978, a relative viability ([1]; first compound 0.1581 µM) of 0.912 and a relative viability ([1]; first compound 0.5 µM) of 0.959. It also gave a relative viability ([1]; first compound 1.581 µM) of 0.944, a relative viability ([1]; first compound 5 µM) of 0.96 and a relative viability ([2]; first compound 0.05 µM) of 1.06. The relative viability ([2]; first compound 0.1581 µM) was 1.09, the relative viability ([2]; first compound 0.5 µM) was 1.09 and the relative viability ([2]; first compound 1.581 µM) was 0.903. For the same cell line, the relative viability ([2]; first compound 5 µM) was 0.842, the relative viability ([3]; first compound 0.253 µM) was 0.743 and the relative viability ([3]; first compound 0.8 µM) was 0.325. The relative viability ([3]; first compound 2.53 µM) was 0.533, the relative viability ([3]; first compound 8 µM) was 0.414 and the relative viability ([4]; first compound 0.005 µM) was 0.202. It also gave a relative viability ([4]; first compound 0.01581 µM) of 0.283, a relative viability ([4]; first compound 0.05 µM) of 0.179 and a relative viability ([4]; first compound 0.1581 µM) of 0.139. For the same cell line, the relative viability ([4]; first compound 0.5 µM) was 0.113.

NCI-H2405 was tested, and the relative viability ([1]; first compound 0.05 µM) was 0.545, the relative viability ([1]; first compound 0.1581 µM) was 0.529 and the relative viability ([1]; first compound 0.5 µM) was 0.474. For the same cell line, the relative viability ([1]; first compound 5 µM) was 0.518, the relative viability ([2]; first compound 0.05 µM) was 0.788 and the relative viability ([2]; first compound 0.1581 µM) was 0.645. It also gave a relative viability ([2]; first compound 0.5 µM) of 0.801, a relative viability ([2]; first compound 1.581 µM) of 0.707 and a relative viability ([2]; first compound 5 µM) of 0.712. It also gave a relative viability ([3]; first compound 0.08 µM) of 0.634, a relative viability ([3]; first compound 0.253 µM) of 0.643 and a relative viability ([3]; first compound 0.8 µM) of 0.583. It also gave a relative viability ([3]; first compound 2.53 µM) of 0.558, a relative viability ([3]; first compound 8 µM) of 0.609 and a relative viability ([4]; first compound 0.005 µM) of 0.363. The relative viability ([4]; first compound 0.01581 µM) was 0.301, the relative viability ([4]; first compound 0.05 µM) was 0.258 and the relative viability ([4]; first compound 0.1581 µM) was 0.153. It also gave a relative viability ([4]; first compound 0.5 µM) of 0.137.

Cell Line LXF-289 has a relative viability ([1]; first compound 0.05 µM) of 0.627, a relative viability ([1]; first compound 0.1581 µM) of 0.64 and a relative viability ([1]; first compound 0.5 µM) of 0.535. For the same cell line, the relative viability ([1]; first compound 1.581 µM) was 0.634, the relative viability ([1]; first compound 5 µM) was 0.612 and the relative viability ([2]; first compound 0.05 µM) was 0.232. For the same cell line, the relative viability ([2]; first compound 0.1581 µM) was 0.195, the relative viability ([2]; first compound 0.5 µM) was 0.194 and the relative viability ([2]; first compound 1.581 µM) was 0.208. The relative viability ([2]; first compound 5 µM) was 0.177, the relative viability ([3]; first compound 0.08 µM) was 0.697 and the relative viability ([3]; first compound 0.253 µM) was 0.901. For the same cell line, the relative viability ([3]; first compound 0.8 µM) was 0.846, the relative viability ([3]; first compound 2.53 µM) was 0.81 and the relative viability ([3]; first compound 8 µM) was 0.735. It also gave a relative viability ([4]; first compound 0.005 µM) of 0.543, a relative viability ([4]; first compound 0.01581 µM) of 0.512 and a relative viability ([4]; first compound 0.05 µM) of 0.414. The relative viability ([4]; first compound 0.1581 µM) was 0.34 and the relative viability ([4]; first compound 0.5 µM) was 0.0987.

With LOU-NH91 the relative viability ([1]; first compound 0.05 µM) was 0.541, the relative viability ([1]; first compound 0.1581 µM) was 0.554 and the relative viability ([1]; first compound 0.5 µM) was 0.561. For the same cell line, the relative viability ([1]; first compound 1.581 µM) was 0.475, the relative viability ([1]; first compound 5 µM) was 0.507 and the relative viability ([2]; first compound 0.05 µM) was 0.724. For the same cell line, the relative viability ([2]; first compound 0.1581 µM) was 0.688, the relative viability ([2]; first compound 0.5 µM) was 0.734 and the relative viability ([2]; first compound 1.581 µM) was 0.644. The relative viability ([2]; first compound 5 µM) was 0.638, the relative viability ([3]; first compound 0.08 µM) was 0.666 and the relative viability ([3]; first compound 0.253 µM) was 0.733. For the same cell line, the relative viability ([3]; first compound 0.8 µM) was 0.684, the relative viability ([3]; first compound 2.53 µM) was 0.729 and the relative viability ([3]; first compound 8 µM) was 0.676. For the same cell line, the relative viability ([4]; first compound 0.005 µM) was 0.734, the relative viability ([4]; first compound 0.01581 µM) was 0.678 and the relative viability ([4]; first compound 0.05 µM) was 0.566. The relative viability ([4]; first compound 0.1581 µM) was 0.489 and the relative viability ([4]; first compound 0.5 µM) was 0.288.

For A549, the relative viability ([4]; first compound 0.005 µM) was 0.207, the relative viability ([4]; first compound 0.01581 µM) was 0.165 and the relative viability ([4]; first compound 0.05 µM) was 0.175. It also gave a relative viability ([4]; first compound 0.1581 µM) of 0.137 and a relative viability ([4]; first compound 0.5 µM) of 0.0717.

H3255 was tested, and the relative viability ([1]; first compound 0.05 µM) was 0.316, the relative viability ([1]; first compound 0.1581 µM) was 0.291 and the relative viability ([1]; first compound 0.5 µM) was 0.309. For the same cell line, the relative viability ([1]; first compound 1.581 µM) was 0.334, the relative viability ([1]; first compound 5 µM) was 0.306 and the relative viability ([2]; first compound 0.05 µM) was 0.567. The relative viability ([2]; first compound 0.1581 µM) was 0.844, the relative viability ([2]; first compound 0.5 µM) was 0.757 and the relative viability ([2]; first compound 1.581 µM) was 0.487. For the same cell line, the relative viability ([2]; first compound 5 µM) was 0.507, the relative viability ([3]; first compound 0.08 µM) was 0.556 and the relative viability ([3]; first compound 0.253 µM) was 0.58. For the same cell line, the relative viability ([3]; first compound 0.8 µM) was 0.559, the relative viability ([3]; first compound 2.53 µM) was 0.483 and the relative viability ([3]; first compound 8 µM) was 0.388. The relative viability ([4]; first compound 0.005 µM) was 0.312, the relative viability ([4]; first compound 0.01581 µM) was 0.344 and the relative viability ([4]; first compound 0.05 µM) was 0.341. It also gave a relative viability ([4]; first compound 0.1581 µM) of 0.322 and a relative viability ([4]; first compound 0.5 µM) of 0.274.

In the case of NCI-H1395, the relative viability ([1]; first compound 0.05 µM) was 0.757, the relative viability ([1]; first compound 0.1581 µM) was 0.634 and the relative viability ([1]; first compound 0.5 µM) was 0.631. For the same cell line, the relative viability ([1]; first compound 1.581 µM) was 0.656, the relative viability ([1]; first compound 5 µM) was 0.715 and the relative viability ([2]; first compound 0.05 µM) was 0.716. The relative viability ([2]; first compound 0.1581 µM) was 0.735, the relative viability ([2]; first compound 0.5 µM) was 0.796 and the relative viability ([2]; first compound 1.581 µM) was 0.787. It also gave a relative viability ([2]; first compound 5 µM) of 0.807, a relative viability ([3]; first compound 0.08 µM) of 0.593 and a relative viability ([3]; first compound 0.253 µM) of 0.69. It also gave a relative viability ([3]; first compound 0.8 µM) of 0.736, a relative viability ([3]; first compound 2.53 µM) of 0.677 and a relative viability ([3]; first compound 8 µM) of 0.62. The relative viability ([4]; first compound 0.005 µM) was 0.398, the relative viability ([4]; first compound 0.01581 µM) was 0.435 and the relative viability ([4]; first compound 0.05 µM) was 0.369. For the same cell line, the relative viability ([4]; first compound 0.1581 µM) was 0.305 and the relative viability ([4]; first compound 0.5 µM) was 0.304.

LC-2-ad gave a relative viability ([1]; first compound 0.05 µM) of 0.504, a relative viability ([1]; first compound 0.1581 µM) of 0.477 and a relative viability ([1]; first compound 0.5 µM) of 0.538. The relative viability ([1]; first compound 1.581 µM) was 0.486, the relative viability ([1]; first compound 5 µM) was 0.47 and the relative viability ([2]; first compound 0.05 µM) was 0.519. The relative viability ([2]; first compound 0.1581 µM) was 0.528, the relative viability ([2]; first compound 0.5 µM) was 0.436 and the relative viability ([2]; first compound 1.581 µM) was 0.41. It also gave a relative viability ([2]; first compound 5 µM) of 0.45, a relative viability ([3]; first compound 0.08 µM) of 0.733 and a relative viability ([3]; first compound 0.253 µM) of 0.843. For the same cell line, the relative viability ([3]; first compound 0.8 µM) was 0.783, the relative viability ([3]; first compound 2.53 µM) was 0.73 and the relative viability ([3]; first compound 8 µM) was 0.771. For the same cell line, the relative viability ([4]; first compound 0.005 µM) was 0.636, the relative viability ([4]; first compound 0.01581 µM) was 0.623 and the relative viability ([4]; first compound 0.05 µM) was 0.411. For the same cell line, the relative viability ([4]; first compound 0.1581 µM) was 0.306 and the relative viability ([4]; first compound 0.5 µM) was 0.265.
